Results on 18 compounds are retold here after US4937232A, “Inhibition of protein kinase C by long-chain bases” (priority 1988, dated 1990).

Entries after “also recorded” stand apart in the source; their conditions may differ. Read-outs that look alike come from different tables or passages of the source. A value given as a limit tells only on which side of the number the result lay.

One test has as its system human neutrophils. Put plainly: Oxygen consumption (oxidative burst) of human neutrophils. The test is classed as cell-based. To be noted: for IC50: read-out: Concentration required for 50% inhibition; for RATE of oxygen consumption, NO SPHINGANINE: activator alone. The text has this: Human neutrophils were obtained by continuous flow leukapheresis from normal adults. Residual erythrocytes were removed by hypotonic lysis with a resulting purity of >95% neutrophils. Alternatively peripheral blood was obtained by phlebotomy and neutrophils were isolated by HESPAN (6% Hetastarch, 0.9% NaCl) sedimentaion of erythrocytes, centrifugation through lymphocyte separation medium (9.4% sodium diatrizoate, 6.2% Ficoll), and hypotonic lysis of residual erythrocytes. Isolated cells were resuspended in phosphate buffered saline (PBS)-glucose, containing 0.6 mM CaCl2, 2.6 mM KCl, 1.5 mM KH2 PO4, 0.5 mM MgCl2, 136 mM NaCl, 8 mM Na2 HPO4, 5.5 mM glucose.
Oxygen consumption was measured using a Clark-type electrode with YSI model 53 oxygen monitor. Assays were conducted at 37° C. with 6.5×10^6 cells per ml with a total volume of either 2.5 ml or 4 ml. Effectors were injected into the electrode chamber using a Hamilton syringe. Initial slopes after the addition of the stimuli were used for rate calculations. For activators with a lag prior to the onset of the oxidative burst, maximal rates following the lag were used.

In test [1] the test system is protein kinase C. Put plainly: Triton X-100 mixed micellar assay for protein kinase C activity. As to conditions: mixed micellar assay. The format is biochemical, rat. The method, then:
Protein kinase C was partially purified from rat brain as described by Hanrun et al (J. Biol. Chem., 260, 10043, 1985), which is hereby incorporated by reference.
Protein kinase C was assayed with Triton X-100 mixed micelles as described by Hanrun et al, (ibid.), Sphingosine was dried down with the lipid cofactors.

Another test concerns HL-60 cells. The experiment in a line: PMA-induced adherence (attachment) of HL-60 cells. To be noted: for inhibition of PMA-induced attachment: 8 nM PMA. The test is classed as cell-based, human. The method, then: Cells were centrifuged at 600 g for 3 min, and added at 1×10^5 cells per well in 12-well culture dishes. Medium, PMA, and long-chain bases (prepared as the 1:1 molar complex with fatty acid-free bovine serum albumin) at the indicated concentrations were added for a total volume of 2.0 ml. After the desired times, the cells in suspension were counted and checked for viability (trypan blue exclusion) with a hemacytometer. The attached cells were quantitated by measuring DNA content according to the method of West et al (Anal. Biochem., 147, 289-295, 1985) and by assaying for acid phosphatase according to the method of Schnyder (J. Exp. Med., 148, 434-445, 1978).

The target of test [2] is protein kinase C. Put plainly: Mixed micellar protein kinase C activity assay for lysosphingolipids (Table VI). The format is biochemical. As to conditions: for Inhibition of Protein Kinase C, concentration giving 50% inhibition, (mol %): 0.3% Triton X-100, 1 mol % = 43 μM; for IC50: 0.3% Triton X-100 mixed micelles, 2 mol % dioleoylglycerol, read-out: Inhibition of Protein Kinase C, concentration giving 50% inhibition; for IC50 / inhibition of protein kinase C activity: 6 mol % phosphatidylserine; for inhibition of protein kinase C activity: 2 mol % sn-1,2-dioleoylglycerol, 100 μM Ca2+. The method, then:
(§1) TABLE VI: Inhibition of protein kinase C activity and phorbol-dibutyrate binding by lysosphingolipids. […] The remaining two columns show the observed effects of the lysosphingolipids of protein kinase C activity and phorbol diester binding in vitro and in human platelets. Lysogangliosides were prepared from their parental gangliosides by hydrolysis in methanolic KOH esentially as described by Neuenhofer et al. in Bioch. 24, 525, 1985. During this preparation, with approximately 90-95% conversion, the N-acetate of N-acetylneuraminic acid is partially hydrolyzed. Fatty acids were partitioned into heptane after acidification of the methanolic reaction mixture. Galactosylsphingosine, glucosylsphingosine, and lactosylsphingosine were prepared as previously described for galactosylsphingosine (Radin, Lipids 9, 358, 1974) Sphingosylphosphorylcholine was prepared by hydrolysis in HCl-butanol (Kaller, Biochemische Zeitschrift 334, 451, 1961). The purity of the lyso derivatives (greater than 90%) was checked by thin layer chromatography (TLC) on silica gel H plates developed in chloroform/methanol/2N NH4 OH (65/35/9) and visualized by ninhydrin reaction for N-lyso compounds, by α-naphthol/sulfuric acid for both gangliosides and lysogangliosides,and by a phospholipid spray for sphingosylphosphorylcholine. Lysosphingolipids were quantitated by reaction of the amine group with trinitrobenzenesulfonate. Gangliosides and lysosphingolipids were also quantitated by reaction with anthrone. The lysosphingolipids were then studied for their effect on protein kinase C activity. Protein kinase C was purified to near homogeneity by the method of Wolf et al. (J. Biol. Chem. 260, 15718, 1985), and activity was measured using a mixed micellar assay (described herein). Lysosphingolipids were added directly in aqueous solution, and allowed to equilibrate with the Triton X-100 (0.3% w/v) mixed micelles containing 6 mol % phosphatidylserine and 2 mol % dioleoylglycerol. […] Phorbol-dibutyrate binding was measured in a mixed micellar assay. Lysosphingolipids inhibited phorbol-dibutyrate binding to protein kinase C in the presence of Triton X-100 mixed micelles containing 20 mol % phosphatidylserine. […] The difference is related to the higher concentration of phosphatidylserine used in the binding assay, as both activity and binding show a high cooperative dependence on phosphatidylserine, which modulates the inhibition by lysosphingolipids. Phorbol-dibutyrate binding to human platelets and 40 kDa phosphorylation in platelets were carried out as described above. Lysosphingolipids inhibited phorbol dibutyrate binding to human platelets at concentrations in the 10-50 μM range. Inhibition of 40 kDa phosphorylation occurred over the same concentration range.

The subject of test [3] is protein kinase C-induced phosphorylation of the 40 KDa polypeptide. Put plainly: 40K (40 kDa) protein phosphorylation in human platelets. As to conditions: concentrations less than 100 μM. The format is cell-based. The protocol: They were then suspended in modified Tyrode's buffer to a concentration of 2.5×10^8 platelets/ml.
^32 Pi at 0.2 mCi/ml was added to the platelet suspension and labelling was allowed to proceed for 75 minutes at 37° C., after which the platelets were pelleted at 600×g for 10 minutes and resuspended in Tyrode's buffer to the same concentration. They were then aliquoted in Eppendorf microfuge tubes and preincubated at 37° C. for 5 minutes with the varying concentrations of sphingosine. Platelets were then stimulated with either 5 μM dioctanoylglycerol (added as an ethanol solution with the final concentration of ethanol 0.5%), 10 μM TPA, or 1 unit/ml thrombin. The reactions were stopped after 30 seconds by the addition of an equal volume of 2× sample buffer, and the samples were then boiled for 3 minutes. […] Gels were subsequently fixed in water/methanol/acetic acid (60:30:10), dried, and autoradiographed.

The target in test [4] is protein kinase C. Put plainly: Phorbol-dibutyrate binding to protein kinase C, mixed micellar assay (Table VI). As to conditions: Triton X-100 mixed micelles, 20 mol % phosphatidylserine. The protocol: as §1
[5] abbreviates: oxidative burst, PMA activation.
The mark [6] stands for this setting: Homo sapiens, Neutrophil, oxidative burst, PMA activation.

In the case of “3-amino-3-hydroxy-3-phenyl-propanol [reference compound]”, the IC50 in the test on human neutrophils (setting [5]) was more than 100 µM.
Consider `CCCCCCCCCCCCCCC[C@H](O)[C@@H](N)CO` (relative stereo) [threo-Sphinganine], for which the “inhibition of protein kinase C (specificity)” value (shortened to “inhibition … (specificity)”) in the test on protein kinase C [1] is given as “inhibitors”. In the test on human neutrophils (setting [6]), the IC50 is 24 µM. For the same compound, the “times less effective than erythro-sphinganine” value with human neutrophils (setting [5]) is 3-4 times.
Consider `NC(CO)C(O)c1ccccc1` (stereo not shown) [1,3-dihydroxy-2-amino-3-phenylpropane], for which the “inhibition of PMA-induced attachment” value in the test on HL-60 cells was “did not inhibit”. The “inhibition … (specificity)” value in the test with protein kinase C [1] is “not to be inhibitors”; in the test with protein kinase C [1] (listed as 1,3-dihydroxy-2-amino-3 phenylpropane), “without effect”.
For the compound `CCCCCCCCCCCCCCCC(=O)C(N)CO` (stereo not shown) [3-ketosphinganine], in the test with protein kinase C [1], the “inhibition … (specificity)” value was “inhibitors”.
Turning to `CCCCC/C=C\C/C=C\C/C=C\C/C=C\CCCC(=O)O` [Arachidonate, reference compound], the “RATE of oxygen consumption, NO SPHINGANINE” value with human neutrophils was 4.2 nmols O2 consumed/min/10^6 cells.
As for `CCCCCCCCCCCCCCCC[N+](C)(C)C.[Br-]` [CTAB, cetyl trimethylammonium bromide], in the test on protein kinase C [1] (listed as cetyl triethylammonium bromide), the “inhibition … (specificity)” value is “inactive; also recorded: not to be inhibitors”. The IC50 with human neutrophils (setting [6]) was more than 100 µM.
Regarding `CCCCCCCC(=O)OCC(CO)OC(=O)CCCCCCC` (stereo not shown) [Dioctanoyl Glycerol, 1,2-dioctanoylglycerol, reference compound], the “RATE of oxygen consumption, NO SPHINGANINE” value with human neutrophils was 6.1 nmols O2 consumed/min/10^6 cells.
As for `CCCCCCCCCCCCCCC[C@@H](O)[C@H](CO)NC(C)=O` [N-acetylsphinganine, reference compound], in the test on HL-60 cells (at up to 500 μM), the “inhibition of PMA-induced attachment” value is on record as “not inhibitory”. The IC50 in the test with human neutrophils (setting [6]) is more than 100 µM.
On to `CCCCCCCCCCCCC/C=C/[C@@H](O)[C@H](CO)NC(C)=O` [N-acetylsphingosine], for which the “inhibition … (specificity)” value with protein kinase C [1] is listed as “without effect; also recorded: not to be inhibitors”.
Consider `CCCCCCCCCCCCCCCC(=O)NC(CO)C(O)CCCCCCCCCCCCCCC` (stereo not shown) [N-palmitoyldihydrosphingosine, reference compound], for which the “inhibition of PMA-induced attachment” value in the test with HL-60 cells was “not inhibitory”.
With `CCCCCCCCN` [Octylamine, reference compound], in the test with HL-60 cells, the “inhibition of PMA-induced attachment” value is on record as “did not inhibit”. Also, the “inhibition … (specificity)” value with protein kinase C [1] is listed as “did not inhibit”. In addition, in the test on human neutrophils (setting [6]), the IC50 was 300 µM.
With `CCCCCCCCCCCCCCCCCCN` [Stearylamine, reference compound], the IC50 in the test on HL-60 cells (Homo sapiens, HL-60, read-out: 50% inhibition of PMA-induced attachment) was 10 µM; with human neutrophils (setting [6]) it was 25 µM. Further, the “inhibition … (specificity)” value in the test with protein kinase C [1] is given as “nearly as effective as sphingosine”.
`O[C@H]1[C@H]2[C@H](O)CCCN2C[C@H]1O` [Swainsonine]: the “inhibition … (specificity)” value with protein kinase C [1] is “not an inhibitor”.
Take `CCCCCCCCCCCCC/C=C/[C@@H](O)[C@@H](N)CO[C@@H]1O[C@H](CO)[C@@H](O[C@@H]2O[C@H](CO)[C@H](O[C@H]3O[C@H](CO)[C@H](O)[C@H](O)[C@H]3O)[C@H](O)[C@H]2O)[C@H](O)[C@H]1O` [globotriosylsphingosine]: on protein kinase C [2], the “Inhibition of Protein Kinase C, concentration giving 50% inhibition, (mol %)” value stood at 4.2 mol % and the IC50 was 180 µM.
For the compound `CCCCCCCCCCCCC/C=C/[C@@H](O)[C@H](CO[C@@H]1O[C@H](CO)[C@H](O)[C@H](O)[C@H]1O)NC(C)=O` [reference compound], the “effect on 40 kDa phosphorylation in platelets” value in test [3] is “did not affect”. Further, in the test on protein kinase C [2], the “inhibition of protein kinase C activity” value is reported as “None of these N-acetyl derivatives inhibited”.
Regarding `CCCCCCCCCCCCC/C=C/[C@@H](O)[C@H](COP(=O)([O-])OCC[N+](C)(C)C)NC(C)=O` [reference compound], in test [3], the “effect on 40 kDa phosphorylation in platelets” value was “did not affect”. Besides, the “inhibition of protein kinase C activity” value in the test with protein kinase C [2] is “None of these N-acetyl derivatives inhibited”.
Turning to `CCCCCCCCCCCCC/C=C/[C@@H](O)[C@@H](N)COP(=O)([O-])OCC[N+](C)(C)C` [sphingosylphosphorylcholine], the “Inhibition of Protein Kinase C, concentration giving 50% inhibition, (mol %)” value at protein kinase C [2] is on record as 2.8 mol %. Also, the IC50 on protein kinase C [2] was 120 µM; at protein kinase C [4] (read-out: Inhibition of [3H]PDBu Binding to Protein Kinase) it was 500 µM. Besides, the “Inhibition of [3H]PDBu Binding to Protein Kinase, (mol %)” value at protein kinase C [4] is 11.6 mol %.
As to sphingomyelin [reference compound], in the test on protein kinase C [2], the “inhibition of protein kinase C activity” value is “None of the parent compounds inhibited”.
